Measured values reported in US7612018B2, “Insecticides” (Syngenta Crop Protection, Inc., priority 2004, dated 2009).

Columns and labels:
Spodoptera littoralis [1] = experiment: Activity against Spodoptera littoralis (Example B8); type: in vivo; details: 72 h, young soya plants, spray 400 ppm, 1st instar caterpillars, 3 days, read-out: percentage reduction in the population and in the feeding damage (% activity)
Description: Young soya plants are sprayed with an aqueous emulsion spray mixture comprising 400 ppm of active ingredient and, after the spray coating has dried on, populated with 10 caterpillars (1st instar) of Spodoptera littoralis and introduced into a plastic container. 3 days later, the percentage reduction in the population and in the feeding damage (% activity) are determined by comparing the number of dead caterpillars and the feeding damage between the treated and untreated plants. In this test, compounds listed in the Tables above show good activity. In particular, the compounds T.64.1.136, T1.1.136, T64.1.1 and T1.1.1 have an activity of over 80%.

Plutella xylostella = experiment: Activity against Plutella xylostella (Example B7); type: in vivo; details: 72 h, young cabbage plants, spray 400 ppm, 3rd instar caterpillars, 3 days, read-out: percentage reduction in the population and in the feeding damage (% activity)
Description: (§1) Young cabbage plants are sprayed with an aqueous emulsion spray mixture comprising 400 ppm of active ingredient and, after the spray coating has dried on, populated with 10 caterpillars (3rd instar) of Plutella xylostella and introduced into a plastic container. 3 days later, the percentage reduction in the population and in the feeding damage (% activity) are determined by comparing the number of dead caterpillars and the feeding damage between the treated and untreated plants.

Diabrotica balteata = experiment: Activity against Diabrotica balteata (Example B2); type: in vivo; details: 144 h, maize seedlings, spray 400 ppm, 2nd instar larvae, 6 days, read-out: percentage reduction in the population (% activity)
Description: Maize seedlings are sprayed with an aqueous emulsion spray mixture comprising 400 ppm of active ingredient and, after the spray coating has dried on, populated with 10 larvae (2nd instar) of Diabrotica balteata and introduced into a plastic container. 6 days later, the percentage reduction in the population (% activity) is determined by comparing the number of dead larvae between the treated and untreated plants.

Heliothis virescens = experiment: Activity against Heliothis virescens (foliar application) (Example B3); type: in vivo; details: 144 h, young soya plants, spray 400 ppm, 1st instar caterpillars, 6 days, read-out: percentage reduction in the population and in the feeding damage (% activity)
Description: as §1, with “soya” for “cabbage”, “(1st” for “(3rd”, “Heliothis virescens” for “Plutella xylostella”, “6” for “3”

Spodoptera littoralis [2] = experiment: Systemic Insecticide Test for Spodoptera littoralis (Example B9); type: in vivo; details: for Death rate (%) after 4 days: 1st instar larvae on cut leaves, one replicate
Description: Four day old maize seedlings (Zea mais, variety Stoneville) are placed individual in vials containing 24 ml water into which the chemical is diluted at the prescribed concentrations (12.5, 3 and 0.8 ppm). Seedlings are allowed to grow for six days. Subsequently leaves are cut and placed in a Petri dish (3.5 cm diameter), inoculated with twelve to fifteen 1st instar S. littoralis larvae and incubated for four days in a growth chamber (25° C., 50% r.h., 18:6 L:D photo period). Number of alive insects are counted and percentage of dead calculated. Tests were conducted with one replicate.

[3] = 0.8 ppm in water of maize seedlings
[4] = 3 ppm in water of maize seedlings
[5] = 12.5 ppm in water of maize seedlings

SMILES | inhibition at 400 ppm (Spodoptera littoralis [1]) [%] | inhibition at 400 ppm (Plutella xylostella) [%] | inhibition at 400 ppm (Diabrotica balteata) [%] | inhibition at 400 ppm (Heliothis virescens) [%] | melting point [°C] | Death rate (%) after 4 days (Spodoptera littoralis [2]; [3]) [%] | Death rate (%) after 4 days (Spodoptera littoralis [2]; [4]) [%] | Death rate (%) after 4 days (Spodoptera littoralis [2]; [5]) [%] | insecticidal action on Spodoptera littoralis compared with the compound from the state of the art (Spodoptera littoralis [2]; comparison with Comp. 124, Table B9)
Cc1cc(C(F)(C(F)(F)F)C(F)(F)F)ccc1NC(=O)c1cccc(Cl)c1C(=O)NC(C)(C)C/S(C)=N/C(=O)OC(C)(C)C (centres unmarked) [Compound T64.1.136] | > 80 | > 80 | > 80 | > 80 | – | – | – | – | –
Cc1cc(C(F)(C(F)(F)F)C(F)(F)F)ccc1NC(=O)c1cccc(Cl)c1C(=O)NC(C)(C)CS(C)(=O)=NC(=O)OC(C)(C)C (centres unmarked) [Compound T55.1.136] | – | > 80 | – | > 80 | 113 to 114 | – | – | – | –
Cc1cc(C(F)(C(F)(F)F)C(F)(F)F)ccc1NC(=O)c1cccc(I)c1C(=O)NC(C)(C)CS(C)(=O)=NC(=O)OC(C)(C)C (centres unmarked) [Compound T55.1.1] | – | > 80 | – | > 80 | – | – | – | – | –
Cc1cc(C(F)(C(F)(F)F)C(F)(F)F)ccc1NC(=O)c1cccc(I)c1C(=O)NC(C)(C)CS(C)(=N)=O (centres unmarked) [Compound T1.1.1] | > 80 | > 80 | > 80 | > 80 | – | 100 | 100 | 100 | substantially better insecticidal action
Cc1cc(C(F)(C(F)(F)F)C(F)(F)F)ccc1NC(=O)c1cccc(Cl)c1C(=O)NC(C)(C)CS(C)(=N)=O (centres unmarked) [Compound T1.1.136] | > 80 | > 80 | – | > 80 | 87 to 88 | – | – | – | –
Cc1cc(C(F)(C(F)(F)F)C(F)(F)F)ccc1NC(=O)c1cccc(I)c1C(=O)NC(C)(C)C/S(C)=N/C(=O)OC(C)(C)C (centres unmarked) [Compound T64.1.1] | > 80 | > 80 | > 80 | > 80 | 125 to 126 | – | – | – | –
Cc1cc(C(F)(C(F)(F)F)C(F)(F)F)ccc1NC(=O)c1cccc(C)c1C(=O)NC(C)(C)CS(C)(=O)=O [Comp. 124, reference compound] | – | – | – | – | – | 0 | 20 | 90 | –
